This note sets out measurements from a melting point compilation (Tetko et al.; mined from patent text by program, amines drawn as free bases though some values may be those of a salt).

In turn, `O=C1c2ccccc2C(=O)N1CC(=O)N1Cc2ccccc2Oc2ccc(Cl)cc21` displayed a melting point of 184 to 185 °C.
In the case of `CN1c2ccccc2-c2nc3ccccc3c3cccc1c23` it was 212 to 214 °C.
The value for `CSC12SCC(COC(C)=O)(OS(C)(=O)=O)C(C(=O)OCc3ccc([N+](=O)[O-])cc3)N1C(=O)C2N=[N+]=[N-]` (centres undefined) was 147 °C; that for `CC1=C(CCN(O)C(N)=O)/C(=C/c2ccc(S(C)=O)cc2)c2ccccc21` (centres undefined) was 166 to 169 °C; that for `CCOC(=O)c1cccc2nc(C(C)C)n(Cc3ccc(-c4ccccc4-c4nnn[nH]4)cc3)c12` was 144 to 146 °C.
In the case of `Cc1ccc(-c2n[nH]cc2-c2ccnc(Cl)n2)cc1` it was 194 to 197 °C.
Compound `CCOC(=O)Cc1c(C)n(Cc2ccc(C(C)(C)C)cc2)c2ccc(OCc3csc(-c4ccccc4)n3)cc12` had a melting point of 119 to 120 °C.
For the compound `N#Cc1cncc(-c2ccc(OC[C@@H](N)Cc3ccccc3)cc2)c1Nc1cccc2[nH]ccc12`, the melting point is 83 to 85 °C.
In the case of `Oc1ccc(C=C2C3=CC=CCC3=CCc3ccccc32)cc1` it was 56.9 °C; in that of `Cc1ccc(C2=NNC(=O)CC2)c(OCC(O)CNC(C)(C)C)c1` (centres undefined), 130 °C.
The value for `CN1CCN(C(=O)Cc2c(-c3ccc(Cl)cc3)nc3ccccn23)CC1` was 175 °C; that for `COCOc1nn(-c2ccccc2)cc1/C=C/c1csc(C(C)(C)C)n1` was 112 to 113 °C.
In the case of `CCCCCCCCCCCN=C1SC(=CC(=O)O)C(=O)N1CCCCCCCCCCC` it was 67 to 68 °C; in that of `O=[N+]([O-])C(F)(CCc1nnc(C(F)(F)C(F)(F)C(F)(F)F)o1)[N+](=O)[O-]`, 21 to 22 °C.
In turn, `Cc1ccc([N+](=O)[O-])c(Oc2cc(C(F)(F)F)nn2C)c1` yielded a melting point of 88 to 90 °C.
The value for `Cc1cnc(Oc2cccc(C(F)(F)F)c2)c(C(=O)Nc2ccc(F)cc2F)c1` was 133 to 135 °C.
In the case of `CC(O)c1ccc(CCOc2ccc(CC3SC(=O)NC3=O)cc2)nc1` (centres undefined) it was 155 to 156 °C.
The value for `COC(=O)Cc1sc(=S)[nH]c1COc1ccccc1` was 138 °C.
Compound `COCC1CCCN(c2ccnc3sc(C(N)=O)c(N)c23)C1` (centres undefined) showed a melting point of 229 to 230 °C.
In the case of `O=C1N(CC2CCCCC2)c2ccccc2C12COc1cc3c(cc12)OCO3` (centres undefined) it was 153 to 154 °C.
Take `C[Si](C)(C)CCOC1OC(CO)C(O)C(O)C1N=[N+]=[N-]` (centres undefined): the melting point lay within 158 to 161 °C.
In the case of `CCOC(=O)c1cnoc1-c1ccc(F)c(F)c1` it was 64 to 65 °C.
In the case of `COC(=O)c1c([N+](=O)[O-])cccc1S(=O)(=O)N(C)CCO` it was 98 to 101 °C; in that of `C=CCOC(=O)c1ccc(N=C(NC)c2ccc(OC)c(C34CC5CC(CC(C5)C3)C4)c2)cc1`, 77 to 79 °C.
The value for `Cc1ccc(C2SC(=O)NC2=O)cc1C` (centres undefined) was 121 to 122 °C; that for `CC(C)CCCC(C)C1CCC2C3CCC4CC(OC(=O)c5ccccc5)CCC4(C)C3CCC12C` (centres undefined) was 215 to 216 °C.
The compound `COc1ccc(-c2nc(C)c(NC(C)=O)[nH]2)cc1` gave a melting point of 202 to 204 °C.
`CC12CCC3C(CC=C4CC(C(=O)CBr)CCC43C)C1CCC2=O` (centres undefined) displayed a melting point of 150 °C.
In turn, `CCCCCC1(C)OCc2c1cnc(C)c2OCC(=O)O` (centres undefined) displayed a melting point of 211 °C.
In the case of `CCOC(=O)c1cnc2c(OC)cccc2c1Nc1ccc(O)cc1C` it was 277 to 279 °C; in that of `CCc1cc(C(O)(CC)CC)ccc1-c1cc(OCc2ccc(CO)c(CO)c2)ccc1CC`, 93 °C; in that of `COc1cc(OCc2ccccn2)ccc1/C=C/c1cc(/C=C/c2ccc3ccn(S(C)(=O)=O)c3c2)n[nH]1`, 212 to 214 °C.
In the case of `CC1(C)C=Cc2c(c3ccccc3n(Cc3ccccc3)c2=O)O1` it was 91 to 92 °C; in that of `CCCOc1ccc(-c2c(Cl)ncn2-c2ccc(S(C)(=O)=O)cc2)cc1`, 161 to 163 °C.

As a reminder, the melting point is the temperature, or range, at which the solid turns liquid.
